How the values were obtained:
[1] = target: T1, Ephrin type-B receptor 3 (Homo sapiens) (UniProt P54753); experiment: Inhibition of EPH-B3 (unknown origin) at 1 uM incubated for 30 mins in presence of [gamma-33P]ATP by multidrop micro reagent based assay relative to control
T1 sequence (whole entry): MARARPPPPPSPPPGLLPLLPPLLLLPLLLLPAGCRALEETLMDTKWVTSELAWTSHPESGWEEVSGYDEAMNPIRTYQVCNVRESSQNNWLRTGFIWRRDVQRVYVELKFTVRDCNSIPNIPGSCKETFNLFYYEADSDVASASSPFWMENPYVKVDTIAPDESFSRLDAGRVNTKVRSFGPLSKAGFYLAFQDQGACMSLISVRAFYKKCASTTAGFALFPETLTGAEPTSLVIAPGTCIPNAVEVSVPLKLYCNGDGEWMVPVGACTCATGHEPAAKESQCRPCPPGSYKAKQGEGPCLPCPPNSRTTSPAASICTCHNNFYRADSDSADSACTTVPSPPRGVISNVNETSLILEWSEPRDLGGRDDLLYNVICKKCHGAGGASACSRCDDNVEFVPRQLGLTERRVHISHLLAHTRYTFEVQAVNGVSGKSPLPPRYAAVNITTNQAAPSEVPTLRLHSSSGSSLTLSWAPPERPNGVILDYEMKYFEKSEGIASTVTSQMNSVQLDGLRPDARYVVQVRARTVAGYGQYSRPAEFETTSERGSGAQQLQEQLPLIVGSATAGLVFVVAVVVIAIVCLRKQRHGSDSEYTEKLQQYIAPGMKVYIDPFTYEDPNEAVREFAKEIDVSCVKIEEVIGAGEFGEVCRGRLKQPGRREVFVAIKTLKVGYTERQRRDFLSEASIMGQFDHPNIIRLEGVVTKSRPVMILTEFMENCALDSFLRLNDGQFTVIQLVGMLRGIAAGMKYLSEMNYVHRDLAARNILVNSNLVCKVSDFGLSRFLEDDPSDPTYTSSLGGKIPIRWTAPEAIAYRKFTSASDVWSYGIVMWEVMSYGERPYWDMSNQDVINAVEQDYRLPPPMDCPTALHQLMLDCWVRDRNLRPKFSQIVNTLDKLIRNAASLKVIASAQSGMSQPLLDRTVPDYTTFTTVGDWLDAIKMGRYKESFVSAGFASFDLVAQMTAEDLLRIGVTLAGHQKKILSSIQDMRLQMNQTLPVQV

[2] = target: Serine/threonine-protein kinase Chk2 (Homo sapiens) (UniProt O96017); experiment: Inhibition of CHK2 (unknown origin) at 10 uM incubated for 30 mins in presence of [gamma-33P]ATP by multidrop micro reagent based assay relative to control; values are per cent of control
Serine/threonine-protein kinase Chk2 (Homo sapiens), sequence (O96017 whole entry): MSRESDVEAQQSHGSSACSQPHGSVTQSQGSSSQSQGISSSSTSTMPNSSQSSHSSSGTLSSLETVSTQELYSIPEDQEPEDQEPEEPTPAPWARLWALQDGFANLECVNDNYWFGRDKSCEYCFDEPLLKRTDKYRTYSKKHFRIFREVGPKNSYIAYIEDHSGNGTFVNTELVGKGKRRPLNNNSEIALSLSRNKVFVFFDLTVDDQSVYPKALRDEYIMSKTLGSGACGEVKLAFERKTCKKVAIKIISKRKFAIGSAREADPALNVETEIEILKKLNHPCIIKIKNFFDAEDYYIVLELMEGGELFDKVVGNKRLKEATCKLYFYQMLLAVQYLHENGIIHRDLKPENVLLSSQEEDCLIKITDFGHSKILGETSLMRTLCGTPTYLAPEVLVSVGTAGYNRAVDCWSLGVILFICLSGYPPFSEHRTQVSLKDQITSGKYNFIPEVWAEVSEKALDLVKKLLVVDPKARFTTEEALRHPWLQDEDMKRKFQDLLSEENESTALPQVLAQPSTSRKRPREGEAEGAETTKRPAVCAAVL

[3] = target: T2, Interleukin-1 receptor-associated kinase 4 (Homo sapiens) (UniProt Q9NWZ3); experiment: Inhibition of IRAK4 (unknown origin) at 10 uM incubated for 30 mins in presence of [gamma-33P]ATP by multidrop micro reagent based assay relative to control; values are per cent of control
T2 sequence (whole entry): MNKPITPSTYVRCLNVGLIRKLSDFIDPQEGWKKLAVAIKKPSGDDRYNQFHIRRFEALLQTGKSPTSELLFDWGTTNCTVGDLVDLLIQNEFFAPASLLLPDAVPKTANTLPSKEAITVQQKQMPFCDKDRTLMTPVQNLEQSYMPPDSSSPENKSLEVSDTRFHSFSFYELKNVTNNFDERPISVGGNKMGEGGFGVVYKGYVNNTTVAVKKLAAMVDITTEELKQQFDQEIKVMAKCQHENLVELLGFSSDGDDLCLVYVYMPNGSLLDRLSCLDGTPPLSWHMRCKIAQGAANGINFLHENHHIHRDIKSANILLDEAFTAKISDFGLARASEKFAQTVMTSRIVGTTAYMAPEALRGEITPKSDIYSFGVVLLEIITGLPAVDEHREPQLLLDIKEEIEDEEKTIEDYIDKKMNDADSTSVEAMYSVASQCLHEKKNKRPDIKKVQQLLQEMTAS

[4] = target: Calcium/calmodulin-dependent protein kinase type 1 (Homo sapiens) (UniProt Q14012); experiment: Inhibition of CaMK1 (unknown origin) at 10 uM incubated for 30 mins in presence of [gamma-33P]ATP by multidrop micro reagent based assay relative to control; values are per cent of control
Calcium/calmodulin-dependent protein kinase type 1 (Homo sapiens), sequence (Q14012 whole entry, looked up): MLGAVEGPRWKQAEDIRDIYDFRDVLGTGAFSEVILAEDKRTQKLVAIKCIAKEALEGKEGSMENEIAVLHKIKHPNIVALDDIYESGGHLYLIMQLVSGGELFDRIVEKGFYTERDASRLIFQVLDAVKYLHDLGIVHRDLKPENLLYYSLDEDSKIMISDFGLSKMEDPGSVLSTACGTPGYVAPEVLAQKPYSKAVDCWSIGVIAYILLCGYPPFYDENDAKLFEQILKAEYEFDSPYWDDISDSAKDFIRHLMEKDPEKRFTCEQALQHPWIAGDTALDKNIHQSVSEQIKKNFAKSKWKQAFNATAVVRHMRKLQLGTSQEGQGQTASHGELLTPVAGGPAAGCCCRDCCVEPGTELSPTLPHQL

[5] = target: T3, Dual specificity tyrosine-phosphorylation-regulated kinase 2 (Homo sapiens) (UniProt Q92630); experiment: Inhibition of DYRK2 (unknown origin) at 10 uM incubated for 30 mins in presence of [gamma-33P]ATP by multidrop micro reagent based assay relative to control; values are per cent of control
T3 sequence (whole entry): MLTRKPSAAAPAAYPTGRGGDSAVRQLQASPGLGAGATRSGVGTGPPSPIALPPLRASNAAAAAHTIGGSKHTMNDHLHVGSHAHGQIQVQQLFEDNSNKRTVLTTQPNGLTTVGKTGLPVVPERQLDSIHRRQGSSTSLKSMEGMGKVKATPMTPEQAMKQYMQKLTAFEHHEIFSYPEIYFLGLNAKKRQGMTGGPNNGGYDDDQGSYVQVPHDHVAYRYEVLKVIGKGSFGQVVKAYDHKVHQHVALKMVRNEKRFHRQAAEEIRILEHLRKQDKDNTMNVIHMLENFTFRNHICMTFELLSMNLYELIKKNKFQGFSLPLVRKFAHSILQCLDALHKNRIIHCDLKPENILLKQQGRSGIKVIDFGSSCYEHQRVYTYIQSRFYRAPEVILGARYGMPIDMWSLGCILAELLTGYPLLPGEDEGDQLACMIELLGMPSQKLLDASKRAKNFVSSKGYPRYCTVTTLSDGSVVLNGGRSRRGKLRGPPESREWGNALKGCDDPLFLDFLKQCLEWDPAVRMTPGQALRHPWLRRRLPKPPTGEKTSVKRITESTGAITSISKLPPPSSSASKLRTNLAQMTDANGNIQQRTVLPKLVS

[6] = target: Aurora kinase B (Homo sapiens) (UniProt Q96GD4); experiment: Inhibition of Aurora B kinase (unknown origin) at 10 uM incubated for 30 mins in presence of [gamma-33P]ATP by multidrop micro reagent based assay relative to control; values are per cent of control
Aurora kinase B (Homo sapiens), sequence (Q96GD4 whole entry): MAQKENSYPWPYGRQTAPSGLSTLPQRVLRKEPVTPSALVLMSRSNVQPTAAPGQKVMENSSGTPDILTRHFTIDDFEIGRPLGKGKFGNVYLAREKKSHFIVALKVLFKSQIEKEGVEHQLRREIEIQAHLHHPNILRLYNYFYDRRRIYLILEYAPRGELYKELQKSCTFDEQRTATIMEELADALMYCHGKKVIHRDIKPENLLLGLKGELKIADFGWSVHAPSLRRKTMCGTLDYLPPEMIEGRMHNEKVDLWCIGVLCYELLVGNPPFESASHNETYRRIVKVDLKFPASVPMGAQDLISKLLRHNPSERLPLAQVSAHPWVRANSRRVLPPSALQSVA

[7] = target: Homeodomain-interacting protein kinase 2 (Homo sapiens) (UniProt Q9H2X6); experiment: Inhibition of HIPK2 (unknown origin) at 10 uM incubated for 30 mins in presence of [gamma-33P]ATP by multidrop micro reagent based assay relative to control; values are per cent of control
Homeodomain-interacting protein kinase 2 (Homo sapiens), sequence (Q9H2X6 whole entry, looked up): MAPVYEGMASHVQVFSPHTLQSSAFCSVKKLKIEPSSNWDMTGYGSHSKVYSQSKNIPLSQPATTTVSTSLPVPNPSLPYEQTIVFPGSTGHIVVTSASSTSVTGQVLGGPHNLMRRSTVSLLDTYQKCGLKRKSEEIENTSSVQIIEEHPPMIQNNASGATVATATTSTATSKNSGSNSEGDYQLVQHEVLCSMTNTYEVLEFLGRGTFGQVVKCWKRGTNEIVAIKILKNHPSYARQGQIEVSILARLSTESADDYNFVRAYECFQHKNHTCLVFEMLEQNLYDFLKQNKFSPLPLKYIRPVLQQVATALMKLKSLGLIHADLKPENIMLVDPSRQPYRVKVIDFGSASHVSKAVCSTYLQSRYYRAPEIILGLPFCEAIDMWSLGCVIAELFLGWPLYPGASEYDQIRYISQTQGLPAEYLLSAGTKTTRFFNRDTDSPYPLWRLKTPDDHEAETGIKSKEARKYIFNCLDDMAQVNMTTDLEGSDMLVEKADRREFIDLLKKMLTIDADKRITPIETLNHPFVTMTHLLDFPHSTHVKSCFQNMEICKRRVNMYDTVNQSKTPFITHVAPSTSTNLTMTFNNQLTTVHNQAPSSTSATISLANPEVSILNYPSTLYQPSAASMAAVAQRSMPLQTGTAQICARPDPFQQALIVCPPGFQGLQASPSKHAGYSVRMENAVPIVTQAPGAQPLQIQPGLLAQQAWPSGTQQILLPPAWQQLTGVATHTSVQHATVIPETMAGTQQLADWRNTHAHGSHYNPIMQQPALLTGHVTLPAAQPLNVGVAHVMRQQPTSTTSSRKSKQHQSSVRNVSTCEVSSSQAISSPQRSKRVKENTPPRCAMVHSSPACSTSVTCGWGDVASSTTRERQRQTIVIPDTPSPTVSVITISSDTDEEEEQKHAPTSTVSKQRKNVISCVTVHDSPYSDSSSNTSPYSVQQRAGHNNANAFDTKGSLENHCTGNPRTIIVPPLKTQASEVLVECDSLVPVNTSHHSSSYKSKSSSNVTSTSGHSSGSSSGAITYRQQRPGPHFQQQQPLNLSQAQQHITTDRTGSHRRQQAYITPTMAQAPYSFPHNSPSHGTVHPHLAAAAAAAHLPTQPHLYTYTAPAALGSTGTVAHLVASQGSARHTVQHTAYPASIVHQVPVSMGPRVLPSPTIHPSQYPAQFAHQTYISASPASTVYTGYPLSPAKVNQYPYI

[8] = species on record: Homo sapiens; experiment: Inhibition of PHK (unknown origin) at 1 uM incubated for 30 mins in presence of [gamma-33P]ATP by multidrop micro reagent based assay relative to control; values are per cent of control

Cc1cncc2cccc(S(=O)(=O)N3CCCNC[C@@H]3C)c12
inhibition [1]: 69%

O=S(=O)(c1cccc2cnccc12)N1CCCNCC1 [FASUDIL]
residual activity [2]: 34% | residual activity [3]: 69% | residual activity [4]: 109% | residual activity [5]: 80% | residual activity [6]: 51% | residual activity [7]: 127%

C[C@@H](N)[C@H]1CC[C@H](C(=O)Nc2ccncc2)CC1
residual activity [2]: 93% | residual activity [3]: 101% | residual activity [4]: 85% | residual activity [5]: 92% | residual activity [6]: 79% | residual activity [7]: 104%

CC1=C(C(=O)Nc2cc3cn[nH]c3cc2F)C(c2ccc(C(F)(F)F)cc2)CC(=O)N1 (stereo unspecified)
inhibition [1]: 87% | residual activity [8]: 97%

CCN(CC)CCNC(=O)c1c(C)[nH]c(/C=C2\C(=O)Nc3ccc(F)cc32)c1C
residual activity [8]: 2%

From ChEMBL document CHEMBL5705888, “Substrate specificity and inhibitors of LRRK2, a protein kinase mutated in Parkinson's disease” (Biochem J, 2009)
